What is called melting point is the temperature of the solid-liquid transition.

In turn, `Cc1cc2c(cc1C(=O)CO)C(C)(C)CC(C)C2(C)C` (stereo not drawn) displayed a melting point of 81 to 82 °C.
As for `c1csc(-c2cccc3c(-c4cccs4)cccc23)c1`, the figure is 193 to 195 °C; as for `Cn1c2ccc(F)cc2c(=O)n2nc(-c3nnn[nH]3)cc12`, 350 to 360 °C; as for `O=C(O)CCCCCCN1C(=O)c2ccccc2C1=O`, 112 to 115 °C.
Turning to `CSc1ccccc1-c1cc2c(ccn2C)c2c1C(=O)NC2=O`, the melting point lay within 272 to 274 °C.
`O=S(=O)(NCC(O)CN1c2ccccc2CCc2ccccc21)c1ccc(OC(F)(F)F)cc1` (stereo not drawn) yielded a melting point of 102 to 103 °C.
Regarding `Ic1cc(I)cc(Cc2cc(I)cc(I)c2)c1`, the melting point is 104 to 107 °C.
The compound `COC(=O)CSc1nc(N)c(C=O)nc1Cl` showed a melting point of 103 to 104 °C.
As for `CN(C1CCN(CCCC(F)(F)F)CC1)S(=O)(=O)c1ccc(Nc2nccc(Nc3ccc(F)cc3)n2)cc1`, the melting point lay in the range of 166 to 167 °C.
As for `COCC(=O)OC(n1cc(C#N)c(-c2cccc(Cl)c2Cl)c1)C(Cl)(Cl)Cl` (stereo not drawn), the figure is 88 to 90 °C.
`Cc1c(=O)n(Cc2ccccc2)c(=O)n2cc(C(=O)NCc3ccc(Cl)c(Cl)c3)sc12` displayed a melting point of 180 to 182 °C.
For the compound `COc1ccc(C(=O)NCCc2ccccc2C)cc1`, the melting point lay in the range of 81.8 to 82.1 °C.
In the case of `CN1CCC(OC(=O)c2ccccc2Nc2ccnc3cc(C(F)(F)F)ccc23)CC1`, the melting point came to 116 °C.
As for `C#CCOCCn1c(N2CCN(C)CC2)nc2ccccc21`, the figure is 145 to 146 °C; as for `CCOC(=O)c1cn(-c2ccc(F)cc2)nc1C`, 103 to 104 °C.
On to `CNC1(Cc2ccccc2)C(=O)Nc2ccc(Cl)cc21` (stereo not drawn), for which the melting point amounted to 196 °C.
Compound `CN1C(C(=O)Nc2ccccc2)=C(O)c2ccc3ccccc3c2S1(=O)=O` yielded a melting point of 273 to 274 °C.
`CCCC1CC(O)c2cc(S(N)(=O)=O)sc2S1` (stereo not drawn) displayed a melting point of 156 to 157 °C.
Take `Cc1c(C)c(C=O)c2c(c1C)CCO2`: the melting point was found to be 90 °C.
Regarding `Oc1ccc(Oc2ccc(O)c(Br)c2)cc1Br`, the melting point was 106 °C.
`Cc1cn(C2CC(O)C(CNC(=O)c3ccc(Br)cc3)O2)c(=O)[nH]c1=O` (stereo not drawn) returned a melting point of 250 to 252 °C.
Consider `O=C1Oc2ccc(Cl)cc2C2=c3ccccc3=NCC12` (stereo not drawn), for which the melting point is above 350 °C.
For the compound `CC(=O)SCSc1cnnn1C`, the melting point lay within 37 to 38 °C.
On to `Cc1c(C(=O)O)cnn1-c1c(Cl)cc(C(F)(F)F)cc1Cl`, for which the melting point lay in the range of 187 to 189 °C.
`O=C(Nc1ccccc1)c1ccc(Cn2cnc3ccccc32)cc1` displayed a melting point of 214 to 216 °C.
As for `CC1(C)NC(C[PH](=O)O)C(C)(C)S1` (stereo not drawn), the figure is 193 to 194 °C; as for `N#CC1CN1C(=O)NC(=O)C(Cl)(Cl)Cl` (stereo not drawn), 150 to 152 °C; as for `CC(C)(C)NC(=O)c1nn(-c2ccccc2)c2c1C1CCC2C1` (stereo not drawn), 101 to 103 °C.
As for `CCOC(=O)c1c(Br)nn(C)c1S(N)(=O)=O`, the figure is 96 to 98 °C.
As to `COC(=O)c1ccsc1N=C=S`, the melting point lay in the range of 63 to 65 °C.
On to `Nc1ccccc1Oc1ccccc1C(=O)O`, for which the melting point is 150 to 151 °C.
With `CCOC(=O)c1cnoc1-c1ccc(OC)c(OC)c1`, the melting point was 113 to 114 °C.
For `CCCc1ccc(S(=O)(=O)NN2CCOCC2)cc1`, the melting point is 150 to 152 °C.
Compound `CN(C(=O)c1ccc2nonc2c1)C1CCCCCC1` gave a melting point of 80 to 81 °C.
`CN(C#N)C(=O)CCCC(=O)N(C)C#N` showed a melting point of 51.4 to 52.8 °C.
`CN1CC(CCN2CCOCC2)N(C)c2nc3ccccc3n2C1=O` (stereo not drawn) had a melting point of 149 to 152 °C.
For `CCCc1nc(NS(=O)(=O)c2ccc(C(C)(C)C)cc2)c(-c2ccc(C)cc2)c(OCCO)n1`, the melting point lay within 133 to 134 °C.
As for `COc1ccc(C2=CC(O)CC2)cc1OC1CCCC1` (stereo not drawn), the figure is 105 to 107 °C.
Take `CC(C)(O)Cn1c(CO)nc2c(N)nc3cc(CCC(=O)N4CCOCC4)ccc3c21`: the melting point fell in the range of 223 to 225 °C.
Take `CON=C(C(=O)OC)c1cccc(O)c1`: the melting point was 39.5 to 40.5 °C.
Consider `COc1cccc(-c2nc(Nc3ccc(Cl)cc3)c3ccccc3n2)n1`, for which the melting point fell in the range of 157 to 160 °C.
In turn, `COCCOc1ccc(CCNC(=O)C(F)(F)F)cc1S(=O)(=O)N=CN(C)C` registered a melting point of 134 to 136 °C.
For the compound `CCC(O)(CC)c1cc(C)c(-c2cccc(OCc3ccc(CO)c(CO)c3)c2)c(C)c1`, the melting point worked out at 133 °C.
In turn, `Cc1ccc(N2C(=O)NC(=O)C23CCN(C)CC3)cc1` gave a melting point of 172 to 174 °C.
`COc1ccc(Cn2c(=O)n(C3CCCCC3)c3cc(Cl)ccc32)cc1OC` returned a melting point of 59 °C.
For `Cc1nc2cnc3cccnc3c2n1CC(C)C`, the melting point was 110 to 111 °C.
`c1cc(OCC2CO2)c2cn[nH]c2c1` (stereo not drawn) had a melting point of 60 °C.
For the compound `COc1ccc(OC)c2c1COC(c1ncc(S(=O)(=O)c3ccc(C)cc3)o1)C2` (stereo not drawn), the melting point lay within 138 to 140 °C.
The compound `O=C(O)c1n[nH]c(=O)c2cc(F)ccc12` displayed a melting point of 222 to 224 °C.
For `CCOC(=O)c1c2ccc(Cl)cc2c(-c2ccccc2)n1CCCO`, the melting point lay in the range of 94 to 96 °C.
Compound `CC(=O)OCC1OC(n2c(Cl)nc3c(Cl)cc(Cl)cc32)C(OC(C)=O)C1OC(C)=O` (stereo not drawn) came in with a melting point of 165 to 167 °C.
With `CCn1nnc(Nc2ccc3nc(NCc4ccccc4OC)ccc3c2)n1`, the melting point was 190 °C.
As for `CN1CCC/C1=C\c1nc(-c2ccc(F)cc2)c(-c2ccncc2)n1CCCc1ccccc1`, the melting point lay in the range of 171 to 172 °C.
Turning to `COCCN(CC1=CCC(N)(Oc2ccccc2)C=C1)C(=O)C(Cl)Cl` (stereo not drawn), the melting point lay within 100 to 102 °C.
The compound `CCCCCCCCCCCCc1ccc(NC(C)=O)cc1` came in with a melting point of 100 to 102 °C.
The compound `CCCCCCCNC(=O)Nc1ccccc1C(=O)NCC1c2ccccc2COc2ccc(Br)cc21` (stereo not drawn) had a melting point of 71 to 76 °C.
Compound `CC#CCOc1ccc(S(=O)(=O)N(Cc2cccnc2)C(CSCc2ccccc2)C(=O)NO)cc1` (stereo not drawn) displayed a melting point of 74 to 78 °C.
As for `CC(C)(C)OC(=O)N1CSCC1C(=O)Nc1ccc(-n2nc(C(F)(F)F)cc2C(F)(F)F)cc1` (stereo not drawn), the figure is 82 to 84 °C.
As for `C=C1C(=O)NC(=O)N1c1ccc(Cl)cc1`, the figure is 185 to 187 °C.
For the compound `O=C(Cc1ccncc1)NC(Cc1ccc(Cl)c(Cl)c1)C(=O)CCc1cc(C(F)(F)F)cc(C(F)(F)F)c1` (stereo not drawn), the melting point fell in the range of 142 to 144 °C.
As for `CCCCCCNc1ncnc(N(C)C)c1N`, the figure is 123 to 125 °C.
As for `Fc1ccc(-c2cc(C(F)(F)F)n3cnc(-c4ccncc4)c3n2)cc1Cl`, the figure is 266 °C; as for `O=C(Nc1cccc(S(=O)(=O)NCCO)c1)c1cnn2c(C(F)F)cc(-c3ccc(C(F)(F)F)cc3)nc12`, 231 °C.
On to `CC(=O)Nc1ccc(CCN(C)C)c2cn[nH]c12`, for which the melting point came to 223 °C.
Regarding `CCCCCCOc1ccc2c(CC#N)c(OCCCCCC)ccc2c1CC#N`, the melting point lay within 135 to 136 °C.
`O=[N+]([O-])c1ccc2sc(-c3cccnc3)nc2c1`: the melting point was 196 to 198 °C.
Take `CC(C)Cc1ccc(C(C)COC(=O)c2cc(O)c3c(c2)C(=O)c2cccc(O)c2C3=O)cc1` (stereo not drawn): the melting point was found to be 115 °C.
As for `Cc1cc(OC=CCC(F)(F)F)nc(Oc2cc(C(F)(F)F)nn2C)c1`, the figure is 56 °C; as for `O=Cc1cc2c(s1)CCc1cc(=O)n(-c3ccc(Cl)cc3)nc1-2`, 242 to 244 °C; as for `COc1nc2ccccc2cc1NC(=O)N1CCN(c2ccccc2Cl)CC1`, 79 to 80 °C.
As for `C=CCC(C)(C)C(NC(=O)c1ccc(Cl)cc1)NC(=N[N+](=O)[O-])Nc1cccnc1` (stereo not drawn), the figure is 200 to 203 °C.
Compound `N#Cc1ccc(N2CCCCO2)c2ccccc12` registered a melting point of 111 to 112 °C.
With `O=C(Nc1cccc(C(F)(F)F)c1)Nc1nccnc1C(=O)O`, the melting point was above 300 °C.
The compound `CC(=O)Nc1cccc2c1C(=O)c1ccccc1C2=O` gave a melting point of 221 °C.
As for `O=C(O)c1ccoc1Cl`, the figure is 138 to 141 °C; as for `CCn1c(=O)ccn(-c2ccc(N)cc2)c1=O`, 191 °C.
As for `O=C(O)c1ccc(-c2ccc(-c3ccc(C(F)(F)F)cc3)o2)cc1`, the figure is 270 to 271 °C; as for `CCCc1c[nH]nc1OCCCc1cn(-c2ccc(C(F)(F)F)cn2)nc1CCC`, 127 to 128 °C; as for `COc1cc2ncnc(N3CCC(N)CC3)c2cc1OC`, 133 to 135 °C.
On to `CCCc1nc(C(C)=O)c(C#N)[nH]1`, for which the melting point is 93 to 95 °C.
The compound `CS(=O)c1ccc(C2=C(c3cc(F)cc(F)c3)C(=O)C(C)(C)O2)cc1` (stereo not drawn) returned a melting point of 133 to 134 °C.
The compound `Fc1cccc(CNC(=S)N2CCc3c([nH]c4ccccc34)C2c2ccc3c(c2)OCO3)c1` (stereo not drawn) returned a melting point of 179 to 181 °C.
As to `CCOc1nn(CCO)cc1C(=O)NCc1ccc(Cl)cc1Cl`, the melting point is 152 to 153 °C.
In turn, `CCNc1cnc(-c2ccccc2)c(-c2ccccc2)n1` registered a melting point of 121 to 123 °C.
Compound `COc1nc(NCCCN2CCOCC2)nc(OC)c1NC(=O)c1ccc(Oc2cncc([Si](C)(C)C)c2)o1` came in with a melting point of 80 to 82 °C.
As to `CCCNCCC1Cc2ccc(C3=NNC(=O)CC3)cc2C1` (stereo not drawn), the melting point was in the range of 123 to 124 °C.
`C/C(=C\C=C(c1ccccc1)c1ccccc1)C(=O)NCCCCc1cccnc1` registered a melting point of 93 to 94 °C.
With `COC(=O)C(CS)NC(=O)C(=O)NCCS` (stereo not drawn), the melting point was 112 °C.
Compound `CCCCn1ccc(-c2ccc(Oc3ccc(C(=O)O)cc3)cc2)c(Cl)c1=O` came in with a melting point of 280 °C.
With `COc1ccccc1-c1nc2nc(SC)nnc2c(=O)[nH]1`, the melting point was found to be 268 °C.
Compound `NC(=S)c1[nH]c2ccc(Cl)cc2c1S(=O)(=O)c1ccccc1` had a melting point of 207 to 210 °C.
Consider `CCCC(Cl)(Cl)C(NC(=O)c1ccc(Cl)cc1)NC(=NC#N)Nc1cccnc1` (stereo not drawn), for which the melting point fell in the range of 192 to 193 °C.
In the case of `CCc1noc(-c2cccc3c2C(=O)N(C)Cc2c(-c4nc(CC)no4)ncn2-3)n1`, the melting point lay in the range of 173 to 174 °C.

Source of the values: a melting point compilation (Tetko et al.; mined from patent text by program, amines drawn as free bases though some values may be those of a salt).
